Data published in US12194080B2, “Methods for identification, assessment, prevention, and treatment of metabolic disorders using PM20D1 and N-lipidated amino acids” (Dana-Farber Cancer Institute, Inc., priority 2015, dated 2025).

Tests used:
[1] = system: primary BAT adipocytes from UCP1-KO mice; experiment: Cellular oxygen consumption rate, primary BAT adipocytes from UCP1-KO mice; type: cell-based, mouse; conditions: UCP1-KO cells, 50 μM
Description: (§1) C2C12, U2O5, and 293A cells were cultured in DMEM with 10% FBS and pen/strep. Primary inguinal (iWAT) and brown (BAT) adipocytes were obtained as follows. The stromal-vascular fraction of inguinal (iWAT) pad from 4-12 week old male mice was dissected, minced, and digested for 45 min. at 37° C. in PBS containing 10 mM CaCl2, 2.4 U/ml dispase II (Roche), and 1.5 U/ml collagenase D (Roche). The stromal-vascular fraction of brown fat (BAT) pads from newborn (P1-P14) pups was dissected, minced, and digested for 45 min at 37° C. in PBS containing 1.3 mM CaCl2, 120 mM NaCl, 5 mM KCl, 5 mM glucose, 100 mM HEPES, 4% BSA, and 1.5 mg/ml collagenase B (Roche). […]
(§2) Cellular oxygen consumption rates were determined using an XF24 Extracellular Flux Analyzer (Seahorse Biosciences). […] C2C12 or U2OS cells were seeded at 30,000 or 50,000 cells/well, respectively in an XF24 cell culture microplate (V7-PS, Seahorse Bioscience) and analyzed the following day. Primary iWAT or BAT adipocytes were seeded at 15,000 cells/well, differentiation was induced the following day as described, and the cells were analyzed on day 5. […] For data expressed as a percentage of oligomycin-treated basal, the respiration at cycle 6 was normalized to 100%, and the maximum respiration at any time point between cycles 7 and 15 inclusive was used.

[2] = system: primary BAT adipocytes from UCP1-WT mice; experiment: Cellular oxygen consumption rate, primary BAT adipocytes from UCP1-WT mice; type: cell-based, mouse; conditions: UCP1-WT cells, 50 μM
Description: as §1, §2

[3] = system: primary inguinal fat cells, primary BAT cells, C2C12 cells, and U2OS cells; experiment: Uncoupled respiration cellular assays (variety of cell types); type: cell-based; conditions: N-acyl amino acids at 10-100 uM
[4] = system: differentiated primary iWAT cells; experiment: Cellular oxygen consumption rate (Seahorse XF24), differentiated primary iWAT adipocytes; type: cell-based, mouse; conditions: 50 μM, in presence of oligomycin (1 μM)
Description: (§3) C2C12, U2O5, and 293A cells were cultured in DMEM with 10% FBS and pen/strep. Primary inguinal (iWAT) and brown (BAT) adipocytes were obtained as follows. The stromal-vascular fraction of inguinal (iWAT) pad from 4-12 week old male mice was dissected, minced, and digested for 45 min. at 37° C. in PBS containing 10 mM CaCl2, 2.4 U/ml dispase II (Roche), and 1.5 U/ml collagenase D (Roche). The stromal-vascular fraction of brown fat (BAT) pads from newborn (P1-P14) pups was dissected, minced, and digested for 45 min at 37° C. in PBS containing 1.3 mM CaCl2, 120 mM NaCl, 5 mM KCl, 5 mM glucose, 100 mM HEPES, 4% BSA, and 1.5 mg/ml collagenase B (Roche). Digested tissue was diluted with adipocyte culture media (DMEM/F-12, GlutaMAX™ supplement, Life Technologies, with 10% FBS and pen/strep) and centrifuged (600×g for 10 min.). The pellet was resuspended in 10 ml adipocyte culture media, strained through a 40 μm filter, and plated. Differentiation was induced by application of an adipogenic cocktail containing 5 μg/ml insulin (Sigma), 5 μM dexamethasone (Sigma), 250 μM isobutylmethylxanthine (Sigma), and 1 μM rosiglitazone (Cayman) for 2 days. Two days after induction, cells were maintained in adipocyte culture media containing 5 μg/ml insulin and 1 μM rosiglitazone.
(§4) Cellular oxygen consumption rates were determined using an XF24 Extracellular Flux Analyzer (Seahorse Biosciences). Oligomycin was purchased from EMD Millipore, and FCCP and rotenone were purchased from Sigma. C2C12 or U2OS cells were seeded at 30,000 or 50,000 cells/well, respectively in an XF24 cell culture microplate (V7-PS, Seahorse Bioscience) and analyzed the following day. Primary iWAT or BAT adipocytes were seeded at 15,000 cells/well, differentiation was induced the following day as described, and the cells were analyzed on day 5. On the day of analysis, the cells were washed once with Seahorse respiration buffer (8.3 g/1 DMEM, 1.8 g/l NaCl, 1 mM pyruvate, 20 mM glucose, pen/strep), placed in 0.5 ml Seahorse respiration buffer, and incubated in a CO2-free incubator for 1 hr. Port injection solutions were prepared as follows (final concentrations in assay in parentheses): 10 μM oligomycin (1 μM final), […] amino acid (50 μM final), 2 μM FCCP (0.2 μM final), and 30 μM rotenone (3 μM final). The Seahorse program was run as follows: basal measurement, 3 cycles; inject port A (oligomycin), 3 cycles; inject port B (compounds), 8 cycles; inject port C (FCCP), 3 cycles; inject port D (rotenone), 3 cycles. Each cycle consisted of mix 4 min, wait 0 min, and measure 2 min. For data expressed as a percentage of oligomycin-treated basal, the respiration at cycle 6 was normalized to 100%, and the maximum respiration at any time point between cycles 7 and 15 inclusive was used.

[5] = system: proteins in C2C12 cells; experiment: UV crosslinking with photo-probe and identification of N-acyl amino acid protein targets (TAMRA in-gel fluorescence, LC-MS/MS); type: binding, mouse; conditions: photo-probe 50 μM, 20 min, UV irradiation 10 min
Description: Confluent 6-cm plates of C2C12 cells were washed twice with PBS and then treated with photo-probe (20 μM) with or without competitor (C20:4-Phe, 100 μM) in serum free media at 37° C. for 20 min. The media was aspirated. Cells were then placed on ice and UV-irradiated (10 min, UV Stratalinker 2400). Control samples were left on ice under ambient light.
Following UV irradiation, cells were then scraped, centrifuged (5 min, 1,400×g), washed once with cold PBS, and centrifuged again (5 min, 1,400×g). The cell pellets were resuspended in 0.3 ml PBS and sonicated. Click chemistry was performed as follows: To 50 μl cell lysate at 1 mg/ml was added 3 μl TBTA (stock solution: 1.7 mM in 4:1 v/v DMSO:t-BuOH), 1 ul CuSO4 (stock solution: 50 mM in water), 1 ul TCEP (freshly prepared, stock solution: 50 mM), and 1 ul TAMRA-N3 (stock solution: 1.25 mM in DMSO). Reactions were incubated at room temperature for 1 h, and then quenched with 4× SDS loading buffer (17 ul). In-gel TAMRA fluorescence was visualized on a Typhoon™ FLA 9000 scanner (GE Healthcare Life Sciences).

[6] = system: C2C12 cells; experiment: Cellular oxygen consumption rate (uncoupled respiration), C2C12 cells; type: cell-based, mouse; conditions: 50 μM, after oligomycin 1 μM
Description: as §3, §4

[7] = molecular target: T1, human PM20D1 (Homo sapiens, UniProt Q6GTS8); experiment: In vitro N-acyl amino acid hydrolase activity of human PM20D1; type: biochemical; conditions: purified human PM20D1-flag, substrate 100 μM
T1 construct: host or cells: 293A cells, transient transfection; purified from conditioned medium
T1 sequence (Q6GTS8 26-502): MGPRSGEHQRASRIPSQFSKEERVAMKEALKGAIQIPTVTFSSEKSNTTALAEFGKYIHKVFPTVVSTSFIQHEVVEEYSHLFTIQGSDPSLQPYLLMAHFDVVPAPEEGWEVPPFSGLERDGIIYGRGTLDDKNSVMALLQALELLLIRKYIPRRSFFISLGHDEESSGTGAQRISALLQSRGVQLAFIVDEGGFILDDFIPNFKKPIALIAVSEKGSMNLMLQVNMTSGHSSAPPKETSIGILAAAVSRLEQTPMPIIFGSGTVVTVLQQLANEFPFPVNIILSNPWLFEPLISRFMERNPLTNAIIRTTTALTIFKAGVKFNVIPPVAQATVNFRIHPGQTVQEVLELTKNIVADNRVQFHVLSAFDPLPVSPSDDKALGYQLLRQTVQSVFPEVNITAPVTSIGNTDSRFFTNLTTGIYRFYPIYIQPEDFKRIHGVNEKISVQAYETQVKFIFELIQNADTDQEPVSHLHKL
Description: (§5) The concentrated media was centrifuged to remove debris (600×g, 10 min, 4° C.) and the supernatant containing PM20D1-flag was decanted into a new tube. PM20D1-Flag was immunoaffinity purified overnight at 4° C. from the concentrated media using magnetic Flag-M2 beads (Sigma Aldrich). The beads were collected, washed three times in PBS, eluted with 3× Flag peptide ([…] in PBS, Sigma Aldrich), aliquoted, and stored at −80° C. For the purification of human PM20D1-flag, hPM20D1-flag plasmid (Origene) was transiently transfected into 293A cells. After two days, the media was changed, harvested 24 h later, concentrated, and purified exactly as described above.
(§6) In vitro PM20D1-catalyzed synthesis of N-acyl amino acids was measured by incubating purified PM20D1 protein with oleate (1.5 mM) and phenylalanine (0.1 mM) in PBS (to 100 μl final volume) at 37° C. for 1.5 hrs. In vitro PM20D1-catalyzed N-acyl amino acid hydrolysis was measured by incubating purified PM20D1 protein with the indicated N-acyl amino acid (0.1 mM) in PBS (to 100 μl final volume) at 37° C. for 1.5 hrs. Reactions were terminated by placing the vials at −80° C. and the products generated in vitro were analyzed by mass spectroscopy (MS).
(§7) Briefly, frozen serum (30 μl) for polar metabolomic analyses were extracted in 160 μl of 1:1 acetonitrile/methanol with inclusion of internal standard D3, ^15N-serine (1 nmol). […]

[8] = molecular target: T1, human PM20D1; experiment: In vitro N-acyl amino acid synthase activity of human PM20D1; type: biochemical; conditions: purified human PM20D1-flag, oleate 1.5 mM, head group 100 μM
Description: as §5, §6, §7

CCCCC/C=C\C/C=C\C/C=C\C/C=C\CCCC(=O)N[C@@H](Cc1ccccc1)C(=O)O [C20:4-Phe, N-arachidonoyl phenylalanine]
maximal OCR versus the oligomycin-treated basal respiration [1]: 214%
maximal OCR versus the oligomycin-treated basal respiration [2]: 221%
uncoupled respiration in cells [3]: increased uncoupled respiration
maximal OCR versus DMSO at the same time point [4]: 214%
maximal OCR versus oligomycin-treated basal respiration [4]: 243%

C#CCCCCCCCCCCCCCCCC(=O)N[C@@H](CC1(C)N=N1)C(=O)O [photo-probe, (S)-3-(3-methyl-3H-diazirin-3-yl)-2-(octadec-17-ynamido)propanoic acid]
crosslinking assessed by in-gel TAMRA fluorescence [5]: robust, UV-dependent crosslinking
uncoupling activity (uncoupled respiration) [6]: competent inducer of uncoupled respiration

B1: Human PM20D1: purified, recombinant human PM20D1-flag from transiently transfected 293A cells (protein, UniProt Q6GTS8 26-502, looked up)
N-fatty-acyl-amino acid …: T1 sequence (Q6GTS8 26-502)
modifications: FLAG tag
notes: purified, recombinant human PM20D1-flag from transiently transfected 293A cells
N-acyl amino acid hydrolase activity [7]: possessed N-acyl amino acid synthase and hydrolase activities
N-acyl amino acid synthase activity [8]: possessed N-acyl amino acid synthase and hydrolase activities
